Target: T1, MTH1 (Homo sapiens, UniProt P36639)
T1 construct: Human MTH1 full length protein purchased from Abcam (Cambridge, USA); purchased Abcam
Test: MTH1 inhibitor IC50 determination by two-tube OGAL probe assay
Format: biochemical
Conditions: 40 μM OGAL, read-out: apparent IC50
Description: Inhibitory concentration (IC50) values were determined by the two-tube OGAL probe assay. The reaction buffer contained: 50 mM NaCl, 10 mM Tris-HCl (pH 7.9), 10 mM MgCl2, 1 mM DTT, 40 μM OGAL nucleotides, and varied concentrations of inhibitors. After 15 min incubation at 30° C., 5 μL of this reaction solution was added to 95 μL luciferase reaction solution in a 96 well plate to measure ATP signals. All the reactions were performed as three replicates. The IC50 was calculated using GraphPad Prism software.

In the case of `Nc1ncnc2c1c(-c1cccc(OCc3ccccc3)c1)cn2C1CC(CN2CCC2)C1` (stereo not shown) [NVP-AEW541], the IC50 is reported as 1900 nM.

From patent US20190100553A1, “DIRECT ACTIVITY ASSAYS AND COMPOSITIONS FOR NUCLEOTIDE POOL SANITIZING ENZYMES” (priority 2016, published 2019)
